According to US9949980B2, “Drugs to prevent HPV infection” (Wisconsin Alumni Research Foundation, priority 2008, dated 2018):
Read-outs that look alike come from different tables or passages of the source.

Assays:
[1] = in vitro; details: human, Viability (CelTiter Glow)
Procedure: (§1) FIG. 1. High throughout screen (HTS) for identifying inhibitors of HPV infection. Shown is a schematic showing basic steps in the HTS. […] Briefly, HPV16 pseudoviruses containing the SEAP reporter genes are analyzed for their ability to infect as judged by the levels of secreted alkaline phosphatase in the tissue culture supernatant (light grey arrows). Cell viability was assessed in parallel on the same wells (dark grey arrows). In the specific HTS carried out in this study, the compounds were added at 3 uM/1% DMSO final concentration (black arrow) 4 hours prior to infection.
(§2) After incubation at 37° C. for 24 hrs, 35 μL of media was removed. […] Cells were incubated at 37° C. for 48 hrs. 2.5 μL of media was collected for SEAP assay using a PHOSPHA-LIGHT chemiluminescent alkaline phosphatase assay (Applied Biosystems). Cell viability was determined using the CellTiter Glo Luminescent Cell Viability Assay™ (Promega).

[2] = test system: HPV16 pseudoviruses; test: microbe, parasite or virus in culture; type: cell-based; details: Human papillomavirus 16, HEK-293T, 48 h
Procedure: as §1, §2

[3] = read-out: Infectivity (SEAP Activity), 3 μM HTS standard concentration, 293T cells, 48 hrs
[4] = read-out: Infectivity vs. viability, 3 μM HTS standard concentration, ratio infectivity/viability

SMILES	viability at 52 h, 3 μM [1]	activity at 3 µM [2, 3]	activity at 3 µM [2, 4]
O=C1NCCCC1c1n[nH]c(=S)n1Cc1ccccc1 (centres unmarked) [BTB 00471, 3-[4-(phenylmethyl)-5-sulfanylidene-1H-1,2,4-triazol-3-yl]piperidin-2-one]	109%	41%	37.5%
CN(C)C=C=C(O)c1ccccc1C(=O)c1ccc(Cl)cc1 [BTB 08556, (4-chlorophenyl)-[2-(3-dimethylamino-1-hydroxypropa-1,2-dienyl)phenyl]methanone]	106%	55.3%	52%
CC(C)(C)NC(=O)C=Cc1cc([N+](=O)[O-])ccc1Sc1ccc(C(F)(F)F)cn1 [BTB 09390, N1-(tert-butyl)-3-(5-nitro-2-{[5-(trifluoromethyl)-2-pyridyl]thio}phenyl)acrylamide]	81.2%	28.9%	35.6%
N#CCCOCc1cccc2ccccc12 [Compound 5102121, 3-(1-naphthylmethoxy)propanenitrile]	110%	55.8%	50.6%
CC(=NNC(N)=O)C1CC1(C)C(C)(C)C (centres unmarked) [Compound 5104160, 1-(2-tert-butyl-2-methylcyclopropyl)-1-ethanone semicarbazone]	112%	63%	56.2%
O=S(=O)(Nc1nc2ccccc2nc1Nc1ccccc1)c1ccccc1 [Compound 5123541, N-(3-anilino-2-quinoxalinyl)benzenesulfonamide]	106%	47%	44.5%
O=C(NC(NC(=S)Nc1ccccc1[N+](=O)[O-])C(Cl)(Cl)Cl)c1ccco1 (centres unmarked) [Compound 5143070, N-[2,2,2-trichloro-1-({[(2-nitrophenyl)amino]carbonothioyl}amino)ethyl]-2-furamide]	108%	43.7%	40.5%
O=C(Nc1ccc(Cl)cc1)Nc1ccc([N+](=O)[O-])cc1Br [Compound 5191771, N-(2-bromo-4-nitrophenyl)-N′-(4-chlorophenyl)urea]	95.2%	39.9%	41.9%
O=C(NC(=S)Nc1ccc([N+](=O)[O-])cc1O)C12CC3CC(CC(C3)C1)C2 [Compound 5197089, N-{[(2-hydroxy-4-nitrophenyl)amino]carbonothioyl}-1-adamantanecarboxamide]	67%	2.01%	2.99%
CCN(C(=O)c1ccccc1Cl)c1ccccc1 [Compound 5272305, 2-chloro-N-ethyl-N-phenylbenzamide]	104%	47.4%	45.6%
O=C(CSc1nc2cc([N+](=O)[O-])ccc2[nH]1)Nc1ccc2c(c1)OCO2 [Compound 5349092, N-1,3-benzodioxol-5-yl-2-[(5-nitro-1H-benzimidazol-2-yl)thio]acetamide]	103%	52.5%	51.1%
NC(=O)NC(c1ccccc1)c1ccccc1Br (centres unmarked) [Compound 5571356, N-[(2-bromophenyl)(phenyl)methyl]urea]	106%	59.1%	56%
COc1cc(C=C2C(=O)NN(c3ccc(Cl)c(Cl)c3)C2=O)c([N+](=O)[O-])cc1OC [Compound 5581710, 1-(3,4-dichlorophenyl)-4-(4,5-dimethoxy-2-nitrobenzylidene)-3,5-pyrazolidinedione]	75.1%	23.9%	31.9%
O=C1NN(c2ccc(Cl)c(Cl)c2)C(=O)C1=Cc1ccc(Cl)c([N+](=O)[O-])c1 [Compound 5585119, 4-(4-chloro-3-nitrobenzylidene)-1-(3,4-dichlorophenyl)-3,5-pyrazolidinedione]	108%	54.4%	50.5%
Cc1ccc(NC(=O)Cc2ccc(F)cc2)cc1 [Compound 5585700, 2-(4-fluorophenyl)-N-(4-methylphenyl)acetamide]	105%	55.4%	52.5%
O=[N+]([O-])c1cccc(C2Nc3ccc(Cl)cc3C3C=CCC32)c1 (centres unmarked) [Compound 5658856, 8-chloro-4-(3-nitrophenyl)-3a,4,5,9b-tetrahydro-3H-cyclopenta[c]quinoline]	75.7%	14.4%	19.1%

SMILES	viability at 52 h, 3 μM [1]	activity at 3 µM [2, 3]	activity at 3 µM [2, 4]
COc1cccc(C(=O)Nc2ccc3oc(-c4ccc(F)cc4Cl)nc3c2)c1 [Compound 5715107, N-[2-(2-chloro-4-fluorophenyl)-1,3-benzoxazol-5-yl]-3-methoxybenzamide]	111%	42.5%	38.2%
CCOc1ccc(N(CC(=O)Nc2c(C)cccc2C)S(=O)(=O)c2ccc(SC)cc2)cc1 [Compound 5740080, N~1~-(2,6-dimethylphenyl)-N~2~-(4-ethoxyphenyl)-N~2~-{[4-(methylthio)phenyl]sulfonyl}glycinamide]	104%	42.2%	40.7%
O=C(Nc1ccccc1)Nc1nnc(Cc2ccc(F)cc2)s1 [Compound 5789300, N-[5-(4-fluorobenzyl)-1,3,4-thiadiazol-2-yl]-N′-phenylurea]	98.4%	40.1%	40.8%
O=C(Nc1sc2c(c1C(=O)NCCc1ccccc1)CCCCC2)c1ccccc1F [Compound 5794700, 2-[(2-fluorobenzoyl)amino]-N-(2-phenylethyl)-5,6,7,8-tetrahydro-4H-cyclohepta[b]thiophene-3-carboxamide]	109%	49.2%	45.1%
COc1ccc(Cl)cc1C(=O)Nc1ccc(NC(=O)c2ccc(C(C)(C)C)cc2)cc1 [Compound 5795860, N-{4-[(4-tert-butylbenzoyl)amino]phenyl}-5-chloro-2-methoxybenzamide]	111%	47.1%	42.4%
Cc1ccnc(NS(=O)(=O)c2ccc(N3C(=O)c4ccccc4C3=O)cc2)n1 [Compound 5842264, 4-(1,3-dioxo-1,3-dihydro-2H-isoindol-2-yl)-N-(4-methyl-2-pyrimidinyl)benzenesulfonamide]	113%	67%	59.6%
O=C1C(=Cc2cccc(O)c2)SC(=S)N1c1ccc(Cl)cc1 [Compound 5851060, 3-(4-chlorophenyl)-5-(3-hydroxybenzylidene)-2-thioxo-1,3-thiazolidin-4-one]	102%	56.3%	55.3%
CCOC(=O)[C@H]1C(=O)c2ccccc2C(=O)/C1=C/c1ccc(CC)cc1 [Compound 5860904, ethyl (2R,3E)-3-[(4-ethylphenyl)methylidene]-1,4-dioxonaphthalene-2-carboxylate]	66%	21.9%	33.2%
Cc1ccc(S(=O)(=O)N(C)c2ccc(Br)cc2C(=O)c2ccccc2)cc1 [Compound 5867793, N-(2-benzoyl-4-bromophenyl)-N,4-dimethylbenzenesulfonamide]	95%	36.1%	38%
COc1cc(C=C2SC(=S)NC2=O)cc(Cl)c1OC(C)C [Compound 5868253, 5-(3-chloro-4-isopropoxy-5-methoxybenzylidene)-2-thioxo-1,3-thiazolidin-4-one]	66.8%	4.97%	7.45%
CC1=C(C(=O)Nc2ccc(C)c(Cl)c2)C(c2ccc(F)cc2)NC(=O)N1 (centres unmarked) [Compound 5880766, N-(3-chloro-4-methylphenyl)-4-(4-fluorophenyl)-6-methyl-2-oxo-1,2,3,4-tetrahydro-5-pyrimidinecarboxamide]	92%	31.9%	34.6%
CSc1nsc(SC)c1NC(=O)OCC1([N+](=O)[O-])COC(C)(C)OC1 [Compound 5893711, (2,2-dimethyl-5-nitro-1,3-dioxan-5-yl)methyl [3,5-bis(methylthio)-4-isothiazolyl]carbamate]	108%	63.3%	58.6%
COn1c(=O)c(=O)n(OC)c2ccccc21 [Compound 5896361, 1,4-dimethoxy-1,4-dihydro-2,3-quinoxalinedione]	102%	60.8%	59.3%
CC(=O)SCCC(=O)N1CCn2c3c(c4cc(C)ccc42)CCCC31 (stereo not drawn) [Compound 5915049, S-[3-(8-methyl-1,2,3a,4,5,6-hexahydro-3H-pyrazino[3,2,1-jk]carbazol-3-yl)-3-oxopropyl] ethanethioate]	102%	56.8%	55.9%
CCCC(=O)NC(c1cccc([N+](=O)[O-])c1)c1ccc2cccnc2c1O (centres unmarked) [Compound 5926288, N-[(8-hydroxy-7-quinolinyl)(3-nitrophenyl)methyl]butanamide]	63.3%	1.52%	2.4%
O=C(Nc1ccc(Cl)c(Cl)c1)Nc1ccccc1C(=O)O [Compound 5963375, 2-({[(3,4-dichlorophenyl)amino]carbonyl}amino)benzoic acid]	–	14.2%	20.2%
